Source: US9242987B2, “Heterocyclyl pyrazolopyrimidine analogues as JAK inhibitors” (Cellzome Limited, priority 2009, dated 2016)

Assays:
JAK2 = biological target: T1, JAK2 (Homo sapiens, UniProt O60674); assay: Kinobeads assay, JAK2; format: binding; details: mixed Molt4/Ramos cell lysate, dot blot detection
T1 construct: endogenous in cells; host or cells: Mixed Molt4/Ramos lysate (1:2)
Outline: (§1)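 Competition pulldown: compound dilution series incubated 3 h in cold room with immobilized aminopyrido-pyrimidine beads and mixed Molt4/Ramos lysate (1:2, 10 mg/mL protein) in DP buffer pH 7.4 with NP40. Bead-bound JAK2/JAK3 eluted, quantified by antibody dot blot with infrared detection; IC50 from dose-response curves.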

JAK3 = biological target: T2, JAK3 (Homo sapiens, UniProt P52333); assay: Kinobeads assay, JAK3; format: binding; details: mixed Molt4/Ramos cell lysate, dot blot detection
T2 construct: endogenous in cells; host or cells: Mixed Molt4/Ramos lysate (1:2)
T2 sequence (P52333 1-1124): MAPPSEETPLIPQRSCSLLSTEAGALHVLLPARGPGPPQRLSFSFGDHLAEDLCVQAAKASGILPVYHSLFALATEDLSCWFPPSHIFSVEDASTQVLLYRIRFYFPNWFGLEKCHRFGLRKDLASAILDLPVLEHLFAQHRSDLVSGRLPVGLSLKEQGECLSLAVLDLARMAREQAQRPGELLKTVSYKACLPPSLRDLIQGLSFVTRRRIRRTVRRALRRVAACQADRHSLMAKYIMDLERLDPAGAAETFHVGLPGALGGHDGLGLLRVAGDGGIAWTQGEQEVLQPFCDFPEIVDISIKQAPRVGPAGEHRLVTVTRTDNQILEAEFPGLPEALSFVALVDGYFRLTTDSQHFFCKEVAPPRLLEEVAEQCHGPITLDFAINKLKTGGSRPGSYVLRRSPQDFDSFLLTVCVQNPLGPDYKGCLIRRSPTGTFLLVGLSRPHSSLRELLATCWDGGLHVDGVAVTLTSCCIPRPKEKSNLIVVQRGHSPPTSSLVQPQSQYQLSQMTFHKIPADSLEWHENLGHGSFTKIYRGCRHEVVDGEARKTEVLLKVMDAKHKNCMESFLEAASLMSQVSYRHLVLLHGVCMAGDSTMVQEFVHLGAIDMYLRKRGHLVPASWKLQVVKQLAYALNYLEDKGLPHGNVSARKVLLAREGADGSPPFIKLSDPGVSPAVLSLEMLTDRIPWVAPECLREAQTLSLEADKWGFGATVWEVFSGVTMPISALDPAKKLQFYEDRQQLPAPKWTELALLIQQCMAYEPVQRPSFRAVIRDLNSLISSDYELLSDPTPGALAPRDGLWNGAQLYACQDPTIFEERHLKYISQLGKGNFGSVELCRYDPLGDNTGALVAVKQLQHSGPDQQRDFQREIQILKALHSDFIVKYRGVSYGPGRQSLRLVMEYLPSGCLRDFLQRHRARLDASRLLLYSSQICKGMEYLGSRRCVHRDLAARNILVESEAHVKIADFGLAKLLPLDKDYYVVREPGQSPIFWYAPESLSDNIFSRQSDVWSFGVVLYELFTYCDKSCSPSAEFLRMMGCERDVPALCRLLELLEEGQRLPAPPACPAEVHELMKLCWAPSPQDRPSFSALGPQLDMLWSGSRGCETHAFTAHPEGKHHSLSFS
Outline: as §1

T1 sequence (O60674 whole entry): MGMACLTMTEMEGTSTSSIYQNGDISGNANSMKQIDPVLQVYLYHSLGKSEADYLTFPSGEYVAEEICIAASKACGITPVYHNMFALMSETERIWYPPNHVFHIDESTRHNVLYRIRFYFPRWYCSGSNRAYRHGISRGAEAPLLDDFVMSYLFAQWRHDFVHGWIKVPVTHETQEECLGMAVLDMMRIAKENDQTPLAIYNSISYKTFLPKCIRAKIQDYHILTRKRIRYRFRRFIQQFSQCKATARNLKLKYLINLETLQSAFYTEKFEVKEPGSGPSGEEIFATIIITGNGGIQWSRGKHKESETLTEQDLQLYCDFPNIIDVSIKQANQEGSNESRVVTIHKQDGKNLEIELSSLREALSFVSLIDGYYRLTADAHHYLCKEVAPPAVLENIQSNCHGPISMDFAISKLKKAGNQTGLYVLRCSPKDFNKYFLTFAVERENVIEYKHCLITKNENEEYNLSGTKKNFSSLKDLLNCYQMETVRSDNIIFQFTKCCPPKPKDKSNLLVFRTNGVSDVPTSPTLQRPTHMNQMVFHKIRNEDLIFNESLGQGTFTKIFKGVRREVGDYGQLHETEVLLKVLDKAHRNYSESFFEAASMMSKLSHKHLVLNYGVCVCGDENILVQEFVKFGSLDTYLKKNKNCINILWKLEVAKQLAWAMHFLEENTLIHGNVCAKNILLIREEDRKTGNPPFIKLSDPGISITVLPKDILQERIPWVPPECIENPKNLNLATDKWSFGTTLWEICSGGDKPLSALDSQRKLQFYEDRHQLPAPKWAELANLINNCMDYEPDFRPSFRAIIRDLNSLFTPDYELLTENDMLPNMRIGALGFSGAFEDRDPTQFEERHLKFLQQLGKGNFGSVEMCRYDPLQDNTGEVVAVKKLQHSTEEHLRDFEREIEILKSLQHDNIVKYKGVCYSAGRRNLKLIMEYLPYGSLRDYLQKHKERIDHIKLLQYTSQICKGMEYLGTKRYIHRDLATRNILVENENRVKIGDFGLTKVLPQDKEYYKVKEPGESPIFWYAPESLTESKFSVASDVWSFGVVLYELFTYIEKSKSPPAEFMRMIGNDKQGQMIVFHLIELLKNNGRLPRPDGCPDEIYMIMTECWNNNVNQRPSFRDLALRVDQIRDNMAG

Structure (SMILES) | IC50 (JAK2) [nM] | IC50 (JAK3) [nM]
Cn1cc(Nc2ncc3cnn(-c4ccc(NS(C)(=O)=O)cn4)c3n2)cn1 [Example 54, N-(6-(6-(1-Methyl-1H-pyrazol-4-ylamino)-1H-pyrazolo[3,4-d]pyrimidin-1-yl)pyridin-3-yl)methanesulfonamide] | 1000 to 10000 | 100 to 1000
CCCn1cc(Nc2ncc3cnn(Cc4ccccc4C#N)c3n2)c(C)n1 [Example 21, 2-((6-(3-Methyl-1-propyl-1H-pyrazol-4-ylamino)-1H-pyrazolo[3,4-d]pyrimidin-1-yl)methyl)benzonitrile] | ≥ 10000 | 100 to 1000
COCCOc1cccc(Cn2ncc3cnc(Nc4cnn(C)c4)nc32)c1C [Example 185, 1-(3-(2-Methoxyethoxy)-2-methylbenzyl)-N-(1-methyl-1H-pyrazol-4-yl)-1H-pyrazolo[3,4-d]pyrimidin-6-amine] | ≥ 10000 | < 100
CC(C)S(=O)(=O)Nc1ccccc1Cn1ncc2cnc(Nc3cnn(C)c3)nc21 [Example 126, N-(2-((6-((1-Methyl-1H-pyrazol-4-yl)amino)-1H-pyrazolo[3,4-d]pyrimidin-1-yl)methyl)phenyl)propane-2-sulfonamide] | 1000 to 10000 | < 100
CC(C)n1cc(Nc2ncc3cnn(Cc4ccccc4C#N)c3n2)cn1 [Example 12, 2-((6-(1-Isopropyl-1H-pyrazol-4-ylamino)-1H-pyrazolo[3,4-d]pyrimidin-1-yl)methyl)benzonitrile] | 1000 to 10000 | < 100
COc1nn(CCO)cc1Nc1ncc2cnn(Cc3cc(F)ccc3F)c2n1 [Example 51, 2-(4-(1-(2,5-Difluorobenzyl)-1H-pyrazolo[3,4-d]pyrimidin-6-ylamino)-3-methoxy-1H-pyrazol-1-yl)ethanol] | 1000 to 10000 | < 100
COc1ccccc1Cn1ncc2cnc(Nc3cnn(C)c3)nc21 [Example 87, 1-(2-Methoxybenzyl)-N-(1-methyl-1H-pyrazol-4-yl)-1H-pyrazolo[3,4-d]pyrimidin-6-amine] | 1000 to 10000 | < 100
Cc1c(Nc2ncc3cnn(Cc4ccccc4C#N)c3n2)cnn1C [Example 37, 2-((6-(1,5-Dimethyl-1H-pyrazol-4-ylamino)-1H-pyrazolo[3,4-d]pyrimidin-1-yl)methyl)benzonitrile] | ≥ 10000 | 100 to 1000
Cn1cc(Nc2ncc3cnn(-c4ccc(S(N)(=O)=O)cc4)c3n2)cn1 [Example 35, 4-(6-(1-Methyl-1H-pyrazol-4-ylamino)-1H-pyrazolo[3,4-d]pyrimidin-1-yl)benzenesulfonamide] | 1000 to 10000 | < 100
CN1CCN(CCCn2cc(Nc3ncc4cnn(Cc5ccccc5F)c4n3)cn2)CC1 [Example 194, 1-(2-Fluorobenzyl)-N-(1-(3-(4-methylpiperazin-1-yl)propyl)-1H-pyrazol-4-yl)-1H-pyrazolo[3,4-d]pyrimidin-6-amine] | ≥ 10000 | 100 to 1000
Cc1cccc(F)c1Cn1ncc2cnc(Nc3cnn(C)c3)nc21 [Example 117, 1-(2-Fluoro-6-methylbenzyl)-N-(1-methyl-1H-pyrazol-4-yl)-1H-pyrazolo[3,4-d]pyrimidin-6-amine] | 1000 to 10000 | < 100
CNC(=O)Cn1cc(Nc2ncc3cnn(Cc4ccccc4F)c3n2)cn1 [Example 290, 2-(4-((1-(2-Fluorobenzyl)-1H-pyrazolo[3,4-d]pyrimidin-6-yl)amino)-1H-pyrazol-1-yl)-N-methylacetamide] | 100 to 1000 | < 100
OCCn1cc(Nc2ncc3cnn(Cc4c(F)ccc(F)c4F)c3n2)cn1 [Example 254, 2-(4-((1-(2,3,6-Trifluorobenzyl)-1H-pyrazolo[3,4-d]pyrimidin-6-yl)amino)-1H-pyrazol-1-yl)ethanol] | 100 to 1000 | < 100
Cn1cc(Nc2ncc3cnn(Cc4ccccc4C(N)=O)c3n2)cn1 [Example 16, 2-((6-(1-Methyl-1H-pyrazol-4-ylamino)-1H-pyrazolo[3,4-d]pyrimidin-1-yl)methyl)benzamide] | 1000 to 10000 | < 100
CN(C)C(=O)c1cc(Nc2ncc3cnn(Cc4ccccc4F)c3n2)cn1C [Example 246, 4-((1-(2-Fluorobenzyl)-1H-pyrazolo[3,4-d]pyrimidin-6-yl)amino)-N,N,1-trimethyl-1H-pyrrole-2-carboxamide] | 100 to 1000 | < 100
CNS(=O)(=O)c1ccc(-n2ncc3cnc(Nc4cnn(C)c4)nc32)cc1 [Example 40, N-Methyl-4-(6-(1-methyl-1H-pyrazol-4-ylamino)-1H-pyrazolo[3,4-d]pyrimidin-1-yl)benzenesulfonamide] | 1000 to 10000 | 100 to 1000
Cn1cc(Nc2ncc3cnn(Cc4cccc5c4OCO5)c3n2)cn1 [Example 228, 1-(Benzo[d][1,3]dioxol-4-ylmethyl)-N-(1-methyl-1H-pyrazol-4-yl)-1H-pyrazolo[3,4-d]pyrimidin-6-amine] | 100 to 1000 | < 100
COCCOc1cccc(Cn2ncc3cnc(Nc4cnn(CCCN(C)C)c4)nc32)c1 [Example 184, N-(1-(3-(Dimethylamino)propyl)-1H-pyrazol-4-yl)-1-(3-(2-methoxyethoxy)benzyl)-1H-pyrazolo[3,4-d]pyrimidin-6-amine] | 1000 to 10000 | < 100
COc1nn(CC(F)F)cc1Nc1ncc2cnn(-c3ccc(S(N)(=O)=O)cc3)c2n1 [Example 71, 4-(6-((1-(2,2-Difluoroethyl)-3-methoxy-1H-pyrazol-4-yl)amino)-1H-pyrazolo[3,4-d]pyrimidin-1-yl)benzenesulfonamide] | ≥ 10000 | 100 to 1000
CNC(=O)c1cc(Nc2ncc3cnn(Cc4ccccc4F)c3n2)c[nH]1 [Example 239, 4-((1-(2-Fluorobenzyl)-1H-pyrazolo[3,4-d]pyrimidin-6-yl)amino)-N-methyl-1H-pyrrole-2-carboxamide] | < 100 | < 100
Cn1cc(Nc2ncc3cnn(Cc4ccccc4C4CC4)c3n2)cn1 [Example 111, 1-(2-Cyclopropylbenzyl)-N-(1-methyl-1H-pyrazol-4-yl)-1H-pyrazolo[3,4-d]pyrimidin-6-amine] | 1000 to 10000 | < 100
COc1cccc(F)c1Cn1ncc2cnc(Nc3cnn(C)c3)nc21 [Example 90, 1-(2-Fluoro-6-methoxybenzyl)-N-(1-methyl-1H-pyrazol-4-yl)-1H-pyrazolo[3,4-d]pyrimidin-6-amine] | 100 to 1000 | < 100
Fc1ccccc1Cn1ncc2cnc(Nc3cnn(CCC4CCOCC4)c3)nc21 [Example 165, 1-(2-Fluorobenzyl)-N-(1-(2-(tetrahydro-2H-pyran-4-yl)ethyl)-1H-pyrazol-4-yl)-1H-pyrazolo[3,4-d]pyrimidin-6-amine] | 1000 to 10000 | < 100
Cn1ccc(Nc2ncc3cnn(Cc4ccccc4F)c3n2)c1 [Example 241, 1-(2-Fluorobenzyl)-N-(1-methyl-1H-pyrrol-3-yl)-1H-pyrazolo[3,4-d]pyrimidin-6-amine] | 1000 to 10000 | < 100
Cn1cc(Nc2ncc3cnn(Cc4c(F)ccc(N5CCNCC5)c4F)c3n2)cn1 [Example 301, 1-(2,6-Difluoro-3-(piperazin-1-yl)benzyl)-N-(1-methyl-1H-pyrazol-4-yl)-1H-pyrazolo[3,4-d]pyrimidin-6-amine] | 1000 to 10000 | < 100
